Reference: patent US9708314B2, “Heterocyclic amide compound” (NISSAN CHEMICAL INDUSTRIES, LTD., priority 2013, dated 2017)

Key:
Assay type in all cases: in vivo
Scirpus juncoides = assay: Test Example 2: herbicidal activity, application during weed generation in submerged conditions; conditions: Eighteenth Table; application herbicide amount 320 g/ha
Method in brief: (§1)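 Post-emergence application under submerged conditions: water-diluted emulsion dosed onto the water surface (g/ha) when weeds reach one- to two-leaf stage. Soil flooded to 4 cm; greenhouse 25–30 °C. Herbicidal ratio graded in six classes, 0 (≤5%) to 5 (≥90%), at three weeks.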

Monochoria vaginalis = assay: as above; conditions: Eighteenth Table; application herbicide amount 320 g/ha
Method in brief: as §1

[1] = tested on: Echinochloa oryzacola Vasing.; assay: as above; conditions: Eighteenth Table; application herbicide amount 320 g/ha
Method in brief: as §1

Chenopodium album = assay: Test Example 4: herbicidal effect by application to foliage (diluvial soil, plastic box); conditions: for O (Chenopodium album) herbicidal effect grade: foliage application
Method in brief: (§2)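 Emulsion-formulated compound, diluted to a predetermined g/ha dose, applied by small sprayer to leaves and stems of 14-day-old seedlings grown in sterilized diluvial soil. Effect rated on 0–5 herbicidal-ratio scale three weeks on.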

Setaria viridis = assay: as above; conditions: for G (Setaria viridis) herbicidal effect grade: foliage application
Method in brief: as §2

Alopecurus myosuroides = assay: as above; conditions: for J (Alopecurus myosuroides) herbicidal effect grade: foliage application
Method in brief: as §2

Abutilon theophrasti = assay: as above; conditions: for M (Abutilon theophrasti) herbicidal effect grade: foliage application
Method in brief: as §2

Avena fatua = assay: as above; conditions: for I (Avena fatua) herbicidal effect grade: foliage application
Method in brief: as §2

Lolium multiflorum Lam. = assay: as above; conditions: for K (Lolium multiflorum Lam.) herbicidal effect grade: foliage application
Method in brief: as §2

[2] = tested on: Echinochloa crus-galli var. crus-galli; assay: as above; conditions: for H (Echinochloa crus-galli var. crus-galli) herbicidal effect grade: foliage application
Method in brief: as §2

Veronica persica = assay: as above; conditions: for R (Veronica persica) herbicidal effect grade: foliage application
Method in brief: as §2

Stellaria media = assay: as above; conditions: for P (Stellaria media) herbicidal effect grade: foliage application
Method in brief: as §2

Amaranthus retroflexus = assay: as above; conditions: for N (Amaranthus retroflexus) herbicidal effect grade: foliage application
Method in brief: as §2

Apera spica-venti. = assay: as above; conditions: for L (Apera spica-venti.) herbicidal effect grade: foliage application
Method in brief: as §2

Digitaria ciliaris = assay: as above; conditions: for F (Digitaria ciliaris) herbicidal effect grade: foliage application
Method in brief: as §2

[3] = application to foliage, application herbicide amount 320 g/ha
[4] = application to foliage, 320 g/ha

| SMILES | B (Scirpus juncoides) herbicidal ratio grade (Scirpus juncoides) | C (Monochoria vaginalis) herbicidal ratio grade (Monochoria vaginalis) | A (Echinochloa oryzicola Vasing.) herbicidal ratio grade [1] | O (Chenopodium album) herbicidal effect grade (Chenopodium album; 320 g/ha) | G (Setaria viridis) herbicidal effect grade (Setaria viridis; 320 g/ha) | J (Alopecurus myosuroides) herbicidal effect grade (Alopecurus myosuroides; 320 g/ha) | M (Abutilon theophrasti) herbicidal effect grade (Abutilon theophrasti; 320 g/ha) | I (Avena fatua) herbicidal effect grade (Avena fatua; 320 g/ha) | K (Lolium multiflorum Lam.) herbicidal effect grade (Lolium multiflorum Lam.; 320 g/ha) | H (Echinochloa crus-galli var. crus-galli) herbicidal effect grade ([2]; 320 g/ha) | R (Veronica persica) herbicidal effect grade (Veronica persica; 320 g/ha) | P (Stellaria media) herbicidal effect grade (Stellaria media; 320 g/ha) | N (Amaranthus retroflexus) herbicidal effect grade (Amaranthus retroflexus; 320 g/ha) | L (Apera spica-venti.) herbicidal effect grade (Apera spica-venti.; 320 g/ha) | F (Digitaria ciliaris) herbicidal effect grade (Digitaria ciliaris; 320 g/ha) | further results |
| --- | --- | --- | --- | --- | --- | --- | --- | --- | --- | --- | --- | --- | --- | --- | --- | --- |
| Cc1nnc2c(C(=O)Nc3nnnn3C)ccc(C(F)(F)F)n12 [2-002] | 1 (Herbicidal ratio of 5% or more and less than 20%) | 2 (Herbicidal ratio of 20% or more and less than 40%) | 2 (Herbicidal ratio of 20% or more and less than 40%) | – | – | – | – | – | – | – | – | – | – | – | – | O: herbicidal effect on Chenopodium album (Chenopodium album; [3]): 5 (Herbicidal ratio of 90% or more (almost completely withered)); G: herbicidal effect on Setaria viridis (Setaria viridis; [3]): 3 (Herbicidal ratio of 40% or more and less than 70%); J: herbicidal effect on Alopecurus myosuroides (Alopecurus myosuroides; [3]): 1 (Herbicidal ratio of 5% or more and less than 20%); M: herbicidal effect on Abutilon theophrasti (Abutilon theophrasti; [3]): 5 (Herbicidal ratio of 90% or more (almost completely withered)); I: herbicidal effect on Avena fatua (Avena fatua; [3]): 3 (Herbicidal ratio of 40% or more and less than 70%); K: herbicidal effect on Lolium multiflorum Lam. (Lolium multiflorum Lam.; [3]): 1 (Herbicidal ratio of 5% or more and less than 20%); H: herbicidal effect on Echinochloa crus-galli var. crus-galli [2, 3]: 5 (Herbicidal ratio of 90% or more (almost completely withered)); R: herbicidal effect on Veronica persica (Veronica persica; [3]): 5 (Herbicidal ratio of 90% or more (almost completely withered)); P: herbicidal effect on Stellaria media (Stellaria media; [3]): 5 (Herbicidal ratio of 90% or more (almost completely withered)); N: herbicidal effect on Amaranthus retroflexus (Amaranthus retroflexus; [3]): 5 (Herbicidal ratio of 90% or more (almost completely withered)); L: herbicidal effect on Apera spica-venti. (Apera spica-venti.; [3]): 1 (Herbicidal ratio of 5% or more and less than 20%); F: herbicidal effect on Digitaria ciliaris (Digitaria ciliaris; [3]): 4 (Herbicidal ratio of 70% or more and less than 90%) |
| COCCNc1nnc2c(C(=O)Nc3nnnn3C)ccc(C(F)(F)F)n12 [2-074] | 4 (Herbicidal ratio of 70% or more and less than 90%) | 3 (Herbicidal ratio of 40% or more and less than 70%) | 4 (Herbicidal ratio of 70% or more and less than 90%) | 5 (Herbicidal ratio of 90% or more (almost completely withered)) | 4 (Herbicidal ratio of 70% or more and less than 90%) | 3 (Herbicidal ratio of 40% or more and less than 70%) | 4 (Herbicidal ratio of 70% or more and less than 90%) | 4 (Herbicidal ratio of 70% or more and less than 90%) | 3 (Herbicidal ratio of 40% or more and less than 70%) | 5 (Herbicidal ratio of 90% or more (almost completely withered)) | 5 (Herbicidal ratio of 90% or more (almost completely withered)) | 4 (Herbicidal ratio of 70% or more and less than 90%) | 5 (Herbicidal ratio of 90% or more (almost completely withered)) | 3 (Herbicidal ratio of 40% or more and less than 70%) | 5 (Herbicidal ratio of 90% or more (almost completely withered)) | – |
| C=CCSc1nnc2c(C(=O)Nc3nnnn3C)ccc(C(F)(F)F)n12 [2-102] | 4 (Herbicidal ratio of 70% or more and less than 90%) | 4 (Herbicidal ratio of 70% or more and less than 90%) | 4 (Herbicidal ratio of 70% or more and less than 90%) | – | – | – | – | – | – | – | – | – | – | – | – | herbicidal effect, O (Chenopodium album) (Chenopodium album; [4]): 5 (Herbicidal ratio of 90% or more (almost completely withered)); herbicidal effect, G (Setaria viridis) (Setaria viridis; [4]): 4 (Herbicidal ratio of 70% or more and less than 90%); herbicidal effect, J (Alopecurus myosuroides) (Alopecurus myosuroides; [4]): 0 (Herbicidal ratio of 5% or less (almost no effect)); herbicidal effect, M (Abutilon theophrasti) (Abutilon theophrasti; [4]): 5 (Herbicidal ratio of 90% or more (almost completely withered)); herbicidal effect, I (Avena fatua) (Avena fatua; [4]): 1 (Herbicidal ratio of 5% or more and less than 20%); herbicidal effect, K (Lolium multiflorum Lam.) (Lolium multiflorum Lam.; [4]): 1 (Herbicidal ratio of 5% or more and less than 20%); herbicidal effect, H (Echinochloa crus-galli var. crus-galli) [2, 4]: 5 (Herbicidal ratio of 90% or more (almost completely withered)); herbicidal effect, R (Veronica persica) (Veronica persica; [4]): 5 (Herbicidal ratio of 90% or more (almost completely withered)); herbicidal effect, P (Stellaria media) (Stellaria media; [4]): 5 (Herbicidal ratio of 90% or more (almost completely withered)); herbicidal effect, N (Amaranthus retroflexus) (Amaranthus retroflexus; [4]): 5 (Herbicidal ratio of 90% or more (almost completely withered)); herbicidal effect, L (Apera spica-venti.) (Apera spica-venti.; [4]): 3 (Herbicidal ratio of 40% or more and less than 70%); herbicidal effect, F (Digitaria ciliaris) (Digitaria ciliaris; [4]): 5 (Herbicidal ratio of 90% or more (almost completely withered)) |
| Cn1nnnc1NC(=O)c1ccc(C(F)(F)F)n2c(C[S+]([O-])CC(F)(F)F)nnc12 (stereo not drawn) [2-035] | 2 (Herbicidal ratio of 20% or more and less than 40%) | 3 (Herbicidal ratio of 40% or more and less than 70%) | 2 (Herbicidal ratio of 20% or more and less than 40%) | 5 (Herbicidal ratio of 90% or more (almost completely withered)) | 5 (Herbicidal ratio of 90% or more (almost completely withered)) | 3 (Herbicidal ratio of 40% or more and less than 70%) | 5 (Herbicidal ratio of 90% or more (almost completely withered)) | 4 (Herbicidal ratio of 70% or more and less than 90%) | 4 (Herbicidal ratio of 70% or more and less than 90%) | 5 (Herbicidal ratio of 90% or more (almost completely withered)) | 5 (Herbicidal ratio of 90% or more (almost completely withered)) | 5 (Herbicidal ratio of 90% or more (almost completely withered)) | 5 (Herbicidal ratio of 90% or more (almost completely withered)) | 4 (Herbicidal ratio of 70% or more and less than 90%) | 5 (Herbicidal ratio of 90% or more (almost completely withered)) | – |
| CN(C)c1nnc2c(C(=O)Nc3nnnn3C)ccc(C(F)(F)F)n12 [2-051] | 5 (Herbicidal ratio of 90% or more (almost completely withered)) | 5 (Herbicidal ratio of 90% or more (almost completely withered)) | 5 (Herbicidal ratio of 90% or more (almost completely withered)) | 5 (Herbicidal ratio of 90% or more (almost completely withered)) | 5 (Herbicidal ratio of 90% or more (almost completely withered)) | 4 (Herbicidal ratio of 70% or more and less than 90%) | 5 (Herbicidal ratio of 90% or more (almost completely withered)) | 5 (Herbicidal ratio of 90% or more (almost completely withered)) | 4 (Herbicidal ratio of 70% or more and less than 90%) | 5 (Herbicidal ratio of 90% or more (almost completely withered)) | 5 (Herbicidal ratio of 90% or more (almost completely withered)) | 5 (Herbicidal ratio of 90% or more (almost completely withered)) | 5 (Herbicidal ratio of 90% or more (almost completely withered)) | 5 (Herbicidal ratio of 90% or more (almost completely withered)) | 5 (Herbicidal ratio of 90% or more (almost completely withered)) | – |
